Source: US20190055235A1, “SUBSTITUTED BICYCLIC COMPOUNDS AS BROMODOMAIN INHIBITORS” (ZENITH EPIGENETICS LTD., priority 2014, published 2019)

Assays:
[1] = target: T1, Brd4 bromodomain 1 (BRD4(1)) (Homo sapiens, UniProt O60885); test: Inhibition of tetra-acetylated histone H4 binding to Brd4 bromodomain 1 (AlphaScreen); details: His-tagged BRD4(1) at 20 nM, biotinylated tetra-acetylated histone H4 peptide, 30 min incubation
T1 construct: N-terminally His-tagged bromodomains (BRD4(1) at 20 nM and BRD4(2) at 100 nM); made in house; host or cells: E. coli BL21(DE3)
Experimental: Proteins were cloned and overexpressed with a N-terminal 6×His tag, then purified by nickel affinity followed by size exclusion chromatography. Briefly, E. coli BL21(DE3) cells were transformed with a recombinant expression vector encoding N-terminally Nickel affinity tagged bromodomains from Brd2, Brd3, Brd4. Cell cultures were incubated at 37° C. with shaking to the appropriate density and induced overnight with IPTG. The supernatant of lysed cells was loaded onto Ni-IDA column for purification. Eluted protein was pooled, concentrated and further purified by size exclusion chromatography. Fractions representing monomeric protein were pooled, concentrated, aliquoted, and frozen at −80° C. for use in subsequent experiments.
Binding of tetra-acetylated histone H4 peptide (Millipore) and BET bromodomains was confirmed by Amplified Luminescent Proximity Homogenous Assay (AlphaScreen). N-terminally His-tagged bromodomains (BRD4(1) at 20 nM and BRD4(2) at 100 nM) and biotinylated tetra-acetylated histone H4 (10-25 nM) were incubated in the presence of nickel chelate acceptor beads and streptavidin donor beads (PerkinAlmer, 6760000K) added to a final concentration of 2 μg/ml under green light in a white 96 well microtiter plate (Greiner). For inhibition assays, serially diluted compounds were added to the reaction mixtures in a 0.1% final concentrations of DMSO. Final buffer concentrations were 50 mM HEPES, 100 mM NaCl and 0.1% BSA buffer, pH 7.4 and optimized to 30 min incubation time. Assay plates were read at 570 nm on a Synergy H4 Plate Reader (Biotek). IC50 values were determined from a dose response curve.

hIL-6 mRNA = test: Inhibition of hIL-6 mRNA transcription in PMA-differentiated, LPS-stimulated U937 cells; type: cell-based; details: Homo sapiens, U-937; U937 cells differentiated with PMA, 1 h pretreatment, 1 ug/mL LPS, 3 h, real-time PCR; read-out: IL-6 activity
Experimental: Human leukemic monocyte lymphoma U937 cells (CRL-1593.2) were plated at a density of 3.2×10^4 cells per well in a 96-well plate in 100 μL RPMI-1640 containing 10% FBS and penicillin/streptomycin, and were differentiated into macrophages for 3 days in 60 ng/mL PMA ([…]) at 37° C. in 5% CO2 prior to the addition of compound. The cells were pretreated for 1 h with increasing concentrations of test compound in 0.1% DMSO prior to stimulation with 1 ug/mL lipopolysaccharide from Escherichia coli. Triplicate wells were used for each concentration. The cells were incubated at 37′C, 5% CO2 for 3 h before the cells were harvested. At time of harvest, media was removed and cells were rinsed in 200 μL PBS. Cells were harvested using the mRNA Catcher PLUS kit according to manufacturer's instructions. The eluted mRNA was then used in a one-step quantitative real-time PCR reaction using components of the RNA UltraSense™ One-Step Kit (Life Technologies) together with Applied Biosystems TaqMan® primer-probes for hIL-6 and Cyclophilin. Real-time PCR plates were run on a ViiA™7 real time PCR machine (Applied Biosystems). The data was analyzed, and the Ct values for hIL-6 were normalized to an internal control prior to determining the fold expression of each sample, relative to the control.

hIL-17 mRNA = test: Inhibition of hIL-17 mRNA transcription in OKT3-stimulated human peripheral blood mononuclear cells; type: cell-based; details: human PBMC, 1 h pretreatment, OKT3 antibody, 6 h, real-time PCR; read-out: IL-17 activity
Experimental: Human peripheral blood mononuclear cells were plated (2.0×10^5 cells per well) in a 96-well plate in 45 μL OpTimizer T Cell expansion media (Life Technologies) containing 20 ng/ml IL-2 and penicillin/streptomycin. The cells were treated with increasing concentrations of the test compound or DMSO (0.1%), and were incubated at 37° C., 5% CO2 for 1 h before addition of 10× stock OKT3 antibody at 10 ug/ml in media. Triplicate wells were used for each concentration. Cells were incubated at 37° C., 5% CO2 for 6 h before the cells were harvested. At time of harvest, cells were pelleted by centrifugation at 800 rpm for 5 min. Cells were harvested using the mRNA Catcher PLUS kit according to manufacturer's instructions. The eluted mRNA was then used in a one-step quantitative real-time PCR reaction, using components of the RNA UltraSense™ One-Step Kit (Life Technologies) together with Applied Biosystems TaqMan® primer-probes for hIL-17 and Cyclophilin. Real-time PCR plates were run on a ViiA™7 real time PCR machine (Applied Biosystems). The data was analyzed, and the Ct values for hIL-17 were normalized to an internal control prior to determining the fold induction of each unknown sample, relative to the control.

Row | IC50 [1] [nM] | IC50 (hIL-6 mRNA) [nM] | IC50 (hIL-17 mRNA) [nM] | Structure (SMILES)
1 | ≤ 300 | 300 to 3000 | 300 to 3000 | CSc1ccc(Cn2c(C)nc3ncc(-c4c(C)noc4C)cc32)cc1 [Example 1, 3,5-Dimethyl-4-(2-methyl-1-(4-(methylthio)benzyl)-1H-imidazo[4,5-b]pyridin-6-yl)isoxazole]
2 | ≤ 300 | 300 to 3000 | 300 to 3000 | COC(=O)c1cccc(Cn2c(C)nc3ncc(-c4c(C)noc4C)cc32)c1 [Example 2, Methyl 3-((6-(3,5-dimethylisoxazol-4-yl)-2-methyl-1H-imidazo[4,5-b]pyridin-1-yl)methyl)benzoate]
3 | ≤ 300 | 300 to 3000 |  | COC(=O)c1ccc(Cn2c(C)nc3ncc(-c4c(C)noc4C)cc32)cc1 [Example 3, Methyl 4-((6-(3,5-dimethylisoxazol-4-yl)-2-methyl-1H-imidazo[4,5-b]pyridin-1-yl)methyl)benzoate]
4 | ≤ 300 | 300 to 3000 | 3000 to 30000 | CSc1cccc(Cn2c(C)nc3ncc(-c4c(C)noc4C)cc32)c1 [Example 4, 3,5-Dimethyl-4-(2-methyl-1-(3-(methylthio)benzyl)-1H-imidazo[4,5-b]pyridin-6-yl)isoxazole]
5 | ≤ 300 |  |  | Cc1noc(C)c1-c1cnc2nc(C)n(Cc3ccc([S+](C)[O-])cc3)c2c1 (centres unmarked) [Example 5, 3,5-Dimethyl-4-(2-methyl-1-(4-(methylsulfinyl)benzyl)-1H-imidazo[4,5-b]pyridin-6-yl)isoxazole]
6 | 3000 to 30000 |  |  | Cc1noc(C)c1-c1cnc2nc(C)n(Cc3cccc(C(=O)O)c3)c2c1 [Example 6, 3-((6-(3,5-Dimethylisoxazol-4-yl)-2-methyl-1H-imidazo[4,5-b]pyridin-1-yl)methyl)benzoic acid]
7 | ≤ 300 | 300 to 3000 |  | Cc1noc(CO)c1-c1cnc2nc(C)n(Cc3ccccc3)c2c1 [Example 7, (4-(1-Benzyl-2-methyl-1H-imidazo[4,5-b]pyridin-6-yl)-3-methylisoxazol-5-yl)methanol]
8 | ≤ 300 | 300 to 3000 |  | Cc1nocc1-c1cnc2nc(C)n(Cc3ccccc3)c2c1 [Example 8, 4-(1-Benzyl-2-methyl-1H-imidazo[4,5-b]pyridin-6-yl)-3-methylisoxazole]
9 | ≤ 300 | 300 to 3000 | 300 to 3000 | Cc1noc(C)c1-c1ccc2[nH]nc(CN3CCC(F)(F)CC3)c2c1 [Example 9, 4-(3-((4,4-Difluoropiperidin-1-yl)methyl)-1H-indazol-5-yl)-3,5-dimethylisoxazole]
10 | ≤ 300 | 300 to 3000 | 300 to 3000 | Cc1noc(C)c1-c1ccc2[nH]nc(CN3CCCCC3)c2c1 [Example 10, 3,5-Dimethyl-4-[3-(1-piperidylmethyl)-1H-indazol-5-yl]isoxazole]
11 | 300 to 3000 | 3000 to 30000 | 300 to 3000 | Cc1noc(C)c1-c1ccc2[nH]nc(CN3CCN(C)CC3)c2c1 [Example 11, 3,5-Dimethyl-4-[3-[(4-methylpiperazin-1-yl)methyl]-1H-indazol-5-yl]isoxazole]
12 | ≤ 300 | 300 to 3000 |  | Cc1noc(C)c1-c1ccc2[nH]nc(CN3CCC(C#N)CC3)c2c1 [Example 12, 1-[[5-(3,5-Dimethylisoxazol-4-yl)-1H-indazol-3-yl]methyl]piperidine-4-carbonitrile]
13 | 300 to 3000 | 300 to 3000 |  | COC1CCN(Cc2n[nH]c3ccc(-c4c(C)noc4C)cc23)CC1 [Example 13, 4-[3-[(4-Methoxy-1-piperidyl)methyl]-1H-indazol-5-yl]-3,5-dimethyl-isoxazole]
14 | 300 to 3000 | 3000 to 30000 |  | Cc1noc(C)c1-c1ccc2[nH]nc(CN3CCOCC3)c2c1 [Example 14, 4-[[5-(3,5-Dimethylisoxazol-4-yl)-1H-indazol-3-yl]methyl]morpholine]
